Experimental data: publication PMC6537702, “Design, synthesis, molecular modelling, and biological evaluation of novel substituted pyrimidine derivatives as potential anticancer agents for hepatocellular carcinoma” (Journal of Enzyme Inhibition and Medicinal Chemistry, 2019)
Values after ≈ are worked out from the molar mass of the structure shown. Read-outs that look alike come from different tables or passages of the source.

Assays:
[1] = test system: HepG2 cell line; experiment: Resazurin cell growth inhibition assay, HepG2; assay type: cell-based, human; conditions: for IC50: Homo sapiens
Text: (§1) All compounds 2a-e, 3a-d, and PPAD’s 4a-t were subjected to a screening system for evaluation of their anticancer activity against cell line of human cancer, namely liver (HepG2 and Huh-7) cancer and normal fibroblast cells obtained from the German Cancer Research Center (DKFZ), following the Resazurin Cell Growth Inhibition Assay[45] in comparison to the standard treatment using DOX (see Supplementary).
(§2) Cell culture and treatment
(§3) All reagents were handled in a sterile fume hood. DMEM medium, and fetal bovine serum (FBS) were purchased from Gibco;phosphate-buffered saline pH 7.4 (PBS) and trypsin-EDTA were obtained from Sigmae Aldrich. Alamar Blue or Resazurin (Promega,Mannheim, Germany) reduction assay was used to assess the cytotoxicity of the studied samples. The growth medium (DMEMmedium with 10% FBS, 10 0 U/mL penicillin, and 10 0 mg/L streptomycin), and alamar blue were stored at 48 C, while trypsineEDTA and FBS were stored frozen at 208C and thawed before use; PBS was stored at room temperature. The Hep-G2, Huh-7 and normal fibroblast cells were obtained from the German Cancer Research Center (DKFZ).Cells were cultured in 50 cm2 culture flask s (Corning) using DMEM medium supplemented with 10% FBS, penicillin (10 0 IU/mL), and streptomycin ([…]). The culture was maintained at 37 C atmosphere of 5% CO2 and 95% relative humidity. The cells were transferred to a new fl ask every 2 days and treated with trypsineEDTA to detach them from the flask . Cells were counted under a microscope using a hemacytometer (Hausser Scientific).Cell solutions were diluted with growth medium to a concentration of 1 *10^5 cells/mL and transferred to a 96-well plate, and treated with gradient concentrations of test compounds.
(§4) Resazurin cell growth inhibition assay
(§5) Alamar Blue or Resazurin (Promega, Mannheim, Germany) reduction assay was used to assess the cytotoxicity of the studied samples. The assay tests cellular viability and mitochondrial function. Briefly y, adherent cells were grown in tissue culture flask s, and then harvested by treating the fl asks with 0.025% trypsin and0.25 mM EDTA for 5 min. Once detached, cells were washed, counted and an aliquot (5 * 103cells) was placed in each well of a96-well cell culture plate in a total volume of […]. Cells were allowed to attach overnight and then treated with samples. The final concentration of samples ranged from 0 to 10 0 mM. After 4 8 h,[…] Resazurin 0.01% w/v solution was added to each well and the plates were incubated at 37C for 1 -2 h. Fluorescence was measured on an automated 96-well Infinite M2000 ProTM plate reader (Tecan, Crailsheim, Germany) using an excit ation wave-length of 54 4 nm and an emission wavelength of 590 nm. Doxorubicin was used as positive control. Each assay was done at least three times, with two replicates each. The viability was compared based on a comparison with untreated cells. IC50(on cancer cells) were the concentration of sample required to inhibit 50% of the cell proliferation and were calculated from a calibration curve by a linear regression using Microsoft Excel

[2] = test system: Huh-7 cell line; experiment: Resazurin cell growth inhibition assay, Huh-7; assay type: cell-based, human; conditions: for IC50: Homo sapiens
Text: as §1, §2, §3, §4, §5

[3] = Resazurin cell growth inhibition assay, normal fibroblast cells; assay type: cell-based; conditions: M ± SEM of three independent experiments, read-out: Cytotoxic activity IC50, Fibroblast
Text: as §1, §2, §3, §4, §5

[4] = HepG2, 48 h, resazurin assay, 48 h, M ± SEM of three independent experiments, read-out: Cytotoxic activity IC50, HepG2 cell line
[5] = Huh-7, 48 h, resazurin assay, 48 h, M ± SEM of three independent experiments, read-out: Cytotoxic activity IC50, Huh-7 cell line
[6] = HepG2, converted from μg/mL, read-out: IC50 against HepG2 cell line, equivalent in μM
[7] = resazurin assay, 48 h, M ± SEM of three independent experiments

melting point	IC50 [1, 6]	IC50 ([2]; Huh-7, converted from μg/mL, read-out: IC50 against Huh-7 cell line, equivalent in μM)	Compound	IC50 [1, 4]	IC50 [2, 5]	IC50 at 48 h [3]	Cytotoxic activity IC50, HepG2 cell line [1, 7]	Cytotoxic activity IC50, Huh-7 cell line [2, 7]
110 to 112 °C			COc1cc(C2CC(c3c4ccccc4cc4ccccc34)=NN2c2nc(-c3ccccc3)c(C#N)c(=O)[nH]2)cc(OC)c1OC (stereo not drawn) [Compound 4c, 2-[3-Anthracene-9-yl-5–(3,4,5-trimethoxy-phenyl)-4,5-dihydro-pyrazol-1-yl]-6-oxo-4-phenyl-1,6-dihydro-pyrimidine-5-carbonitrile]	15.3 ± 4.22 µg/mL	11.3 ± 1.09 µg/mL	29.3 ± 3.51 µg/mL (≈ 48.2 µM)		
135 to 137 °C			N#Cc1c(-c2ccccc2)nc(N2N=C(c3c4ccccc4cc4ccccc34)CC2c2c[nH]c3ccccc23)[nH]c1=O (stereo not drawn) [Compound 4d, 2-[3-Anthracene-9-yl-5-(1H-indol-3-yl)-4,5-dihydro-pyrazol-1-yl]-6-oxo-4-phenyl-1,6-dihydro-pyrimidine-5-carbonitrile]	17.2 ± 4.04 µg/mL	8.42 ± 1.04 µg/mL	21.5 ± 4.07 µg/mL (≈ 38.6 µM)		
	7.2 µM		CN(C)c1ccc(C2CC(c3c4ccccc4cc4ccccc34)=NN2c2nc(-c3ccc(F)cc3)c(C#N)c(=O)[nH]2)cc1 (stereo not drawn) [Compound 4f, 2-[3-Anthracene-9-yl-5–(4-dimethylamino-phenyl)-4,5-dihydro-pyrazol-1-yl]-4–(4-fluoro-phenyl)-6-oxo-1,6-dihydro-pyrimidine-5-carbonitrile]	4.2 µg/mL	8.45 ± 0.75 µg/mL	33.1 ± 6.52 µg/mL (≈ 57.3 µM)	4.22 ± 0.94 µg/mL	
		7.6 µM	COc1cc(C2CC(c3c4ccccc4cc4ccccc34)=NN2c2nc(-c3ccc(F)cc3)c(C#N)c(=O)[nH]2)cc(OC)c1OC (stereo not drawn) [Compound 4g, 2-[3-Anthracene-9-yl-5–(3,4,5-trimethoxy-phenyl)-4,5-dihydro-pyrazol-1-yl]-4–(4-fluoro-phenyl)-6-oxo-1,6-dihydro-pyrimidine-5-carbonitrile]	7.22 ± 1.85 µg/mL	4.78 ± 0.24 µg/mL	25.3 ± 4.87 µg/mL (≈ 40.5 µM)		
143 to 145 °C			N#Cc1c(-c2ccc(F)cc2)nc(N2N=C(c3c4ccccc4cc4ccccc34)CC2c2c[nH]c3ccccc23)[nH]c1=O (stereo not drawn) [Compound 4h, 2-[3-Anthracene-9-yl-5-(1H-indol-3-yl)-4,5-dihydro-pyrazol-1-yl]-4–(4-fluoro-phenyl)-6-oxo-1,6-dihydro-pyrimidine-5-carbonitrile]	7.45 ± 1.11 µg/mL	9.77 ± 1.48 µg/mL	23.5 ± 4.21 µg/mL (≈ 40.9 µM)		
240 to 242 °C			CN(C)c1ccc(C2CC(c3c4ccccc4cc4ccccc34)=NN2c2nc(-c3c[nH]c4ccccc34)c(C#N)c(=O)[nH]2)cc1 (stereo not drawn) [Compound 4j, 2-[3-Anthracene-9-yl-5–(4-dimethylamino-phenyl)-4,5-dihydro-pyrazol-1-yl]-4-(1H-indol-3-yl)-6-oxo-1,6-dihydro-pyrimidine-5-carbonitrile]	12.2 ± 2.53 µg/mL	13.2 ± 3.05 µg/mL	34.1 ± 5.17 µg/mL (≈ 56.9 µM)		
228 to 230 °C			COc1cc(C2CC(c3c4ccccc4cc4ccccc34)=NN2c2nc(-c3c[nH]c4ccccc34)c(C#N)c(=O)[nH]2)cc(OC)c1OC (stereo not drawn) [Compound 4k, 2-[3-Anthracene-9-yl-5–(3,4,5-trimethoxy-phenyl)-4,5-dihydro-pyrazol-1-yl]-4-(1H-indol-3-yl)-6-oxo-1,6-dihydro-pyrimidine-5-carbonitrile]	14.1 ± 3.01 µg/mL	13.5 ± 2.32 µg/mL	27 ± 4.12 µg/mL (≈ 41.8 µM)		
220 to 222 °C			N#Cc1c(-c2c[nH]c3ccccc23)nc(N2N=C(c3c4ccccc4cc4ccccc34)CC2c2c[nH]c3ccccc23)[nH]c1=O (stereo not drawn) [Compound 4l, 2-[3-Anthracene-9-yl-5-(1H-indol-3-yl)-4,5-dihydro-pyrazol-1-yl]-4-(1H-indol-3-yl)-6-oxo–1,6-dihydro-pyrimidine-5-carbonitrile]	14.6 ± 2.12 µg/mL	12.4 ± 1.75 µg/mL	20.2 ± 3.18 µg/mL (≈ 34 µM)		
170 to 172 °C			COc1cc(-c2nc(N3N=C(c4c5ccccc5cc5ccccc45)CC3c3ccc(N(C)C)cc3)[nH]c(=O)c2C#N)cc(OC)c1OC (stereo not drawn) [Compound 4n, 2-[3-Anthracene-9-yl-5–(4-dimethylamino-phenyl)-4,5-dihydro-pyrazol-1-yl]-6-oxo-4–(3,4,5-trimethoxy-phenyl)-1,6-dihydro-pyrimidine-5-carbonitrile]	9.66 ± 1.31 µg/mL	9.54 ± 2.16 µg/mL	18.6 ± 3.17 µg/mL (≈ 28.5 µM)		
			COc1cc(-c2nc(N3N=C(c4c5ccccc5cc5ccccc45)CC3c3c[nH]c4ccccc34)[nH]c(=O)c2C#N)cc(OC)c1OC (stereo not drawn) [Compound 4p, 2-[3-Anthracene-9-yl-5-(1H-indol-3-yl)-4,5-dihydro-pyrazol-1-yl]-6-oxo-4–(3,4,5-trimethoxy-phenyl)-1,6-dihydro-pyrimidine-5-carbonitrile]	11.2 ± 1.2 µg/mL	8.14 ± 1.65 µg/mL	18.2 ± 4.02 µg/mL (≈ 28.2 µM)		
	10.1 µM		COc1cccc2c1C(=O)c1c(O)c3c(c(O)c1C2=O)C[C@@](O)(C(=O)CO)C[C@@H]3O[C@H]1C[C@H](N)[C@H](O)[C@H](C)O1 [Doxorubicin, reference compound]	5.43 ± 0.24 µg/mL	5.43 µg/mL	24.1 ± 3.53 µg/mL (≈ 44.4 µM)		6.40 ± 0.43 µg/mL
